Values quoted from earlier work in the CATMoS acute toxicity set (Mansouri et al. 2021).
Several values for one entry are separate records, joined by “and”; a condition that tells them apart may be missing. Equal values may be shown once.

Experiment: rat acute oral toxicity
Conditions: in vivo
Description: […]The data set underlying the modeling effort for this project was initially compiled by NICEATM and U.S. EPA’s CCTE. Briefly, LD50 data were collected from rat acute oral systemic toxicity tests, including limit tests, ranges/confidence intervals, and discrete LD50 values. The full data set included 21,200 LD50 entries for 15,688 substances. […] Data were reviewed to ensure that LD50 values with obvious errors in the extracted data such as unit conversion errors (e.g., comma and decimal separator misplacements) were either fixed or removed. After this review, 16,209 LD50 values remained. Many of the chemicals represented had multiple LD50 entries, requiring that a single representative value per Chemical Abstracts Service Registry Number (CASRN) identifier be defined to facilitate modeling efforts. Based on ATWG feedback and to define the representative LD50 as a protective value while accounting for the distribution across multiple LD50s, the median of the lowest quartile was computed using only discrete LD50 values (omitting limit test data and range and confidence interval data). A detailed summary of the data compilation is available online on the NICEATM webpage dedicated to the collaborative modeling project (NTP 2020).
[…][…] For categorical designations, limit test and range/confidence interval LD50 data were integrated wherever possible. As such, the number of chemicals with end point values/calls varies across the modeling end points (Table 3) based on whether chemicals had representative LD50 values and/or other data. If a chemical had both, the representative value was used to determine categorical calls rather than limit test data. Some data were useable only for certain end points and categories depending on the thresholds. For example, ranges that spanned multiple hazard categories were considered only for the binary (very toxic/nontoxic) end points and omitted from rendering a determination for hazard category assignment.
[…]The final data set comprising 11,992 chemicals was split into training and evaluation sets […], respectively. This process was performed semirandomly by ordering chemicals based on the five end points (categorical and continuous LD50 values) and partitioning every fourth record into the evaluation set accordingly. This approach was taken to ensure an equivalent distribution of the LD50 values and the different hazard categories between the training and the evaluation sets without supervised sampling of the chemicals based on structures (Figure 1A). The sources of the chemical structures were also kept equivalent between the two sets, with chemical structures obtained from DSSTox, being the highest quality, representing over 75% of each set (Figure 1B).

| Compound | LD50 |
| --- | --- |
| CC(=O)SCC(=O)N=c1[nH]c2ccccc2s1 | 400 mg/kg |
| CCOC(=O)C=Cc1ccc(Cl)cc1 | 957 mg/kg |
| CCOC(=O)N(Cc1ccccc1)C1CC1 | 1380 mg/kg |
| CC(C)CC(O)CC(CC(C)C)CC(C)C (stereo unspecified) | 16300 mg/kg |
| C=C(CC(=O)c1ccc(-c2ccccc2Cl)cc1)C(=O)O | 2400 mg/kg |
| CN1C(C(=O)Nc2ccccn2)=C(O)c2sccc2S1(=O)=O | 79 mg/kg |
| CCCC(C)CCOC(=O)c1ccccc1C(=O)OCCC(C)CCC (stereo unspecified) | 35500 mg/kg |
| O=C(O)C(F)(F)C(F)(F)C(F)(F)C(F)(F)C(F)(F)C(F)(F)C(F)(F)C(F)F | 821 mg/kg |
| COP(=O)(OC)OC(=CCl)c1cc(Cl)c(Cl)cc1Cl | 4000 mg/kg |
| O=C1NC(=O)C2(c3ccc(Cl)cc3)CC12 (stereo unspecified) | 1550 mg/kg |
| CCC(C)c1ccc(O)cc1 (stereo unspecified) | 2450 mg/kg |
| O=C(O)C(Cl)(Cl)CCl | 2460 mg/kg |
| Cc1ccc(Cl)cc1Cl | 2400 mg/kg |
| CCOP(=O)(OCC)Oc1cc(C)n(CC)c(=O)c1 | 1.62 mg/kg |
| c1ccc(C2CCCCC2)c(OCCC2=NCCN2)c1 | 9.2 mg/kg |
| CCn1c2c(c3cccc(N)c31)CCCC2 | 1090 mg/kg |
| Cc1c(N(C)C)c(=O)n(-c2ccccc2)n1C | 285 mg/kg |
| CC(=O)c1ccc(N)cc1 | 381 mg/kg |
| CCCC1(CC(=O)O)OCCc2c1[nH]c1ccccc21 (stereo unspecified) | 1420 mg/kg |
| OC(c1ccccc1)(c1ccc(Cl)cc1)C1CCCCN1 (stereo unspecified) | 400 mg/kg |
| Cc1ccc(/N=N/c2c(O)c(S(=O)(=O)O)cc3ccc(S(=O)(=O)O)cc23)c(C)c1 | 23200 mg/kg |

| Compound | LD50 |
| --- | --- |
| CCCCCOC(=S)S | 1000 mg/kg |
| O=C(O)CCCO | 9690 mg/kg |
| CCOc1ccc(F)cc1C(CN(C)C)C(C)CC (stereo unspecified) | 324 mg/kg |
| CCC(=O)C(CC(C)N(C)C)(c1ccccc1)c1ccccc1 (stereo unspecified) | 86 mg/kg |
| CN1CCC2(C)c3cc(OC(=O)NCCCCCCCCN4CCOCC4)ccc3N(C)C12 (stereo unspecified) | 23 mg/kg |
| CC#CCC(C)[C@H](O)/C=C/[C@@H]1[C@H]2c3cccc(CCCC(=O)O)c3O[C@H]2C[C@H]1O (stereo partly specified) | 12 mg/kg and 11.6 mg/kg |
| O=C(O)Cc1ccc(-c2ccccc2F)cc1 | 638 mg/kg |
| Cc1nn(C)c(=O)c2noc(C)c12 | 1000 mg/kg |
| O=C(O)[C@@H]1CS[C@H](c2ccccc2O)N1C(=O)CCS | 8290 mg/kg |
| SCCS | 120 mg/kg |
| O=C(NC1CCSC1=O)c1cccnc1 (stereo unspecified) | 4500 mg/kg |
| CCOC(=O)c1ccccc1 | 2100 mg/kg |
| CC(Cc1ccccc1)NC(C#N)c1ccccc1 (stereo unspecified) | 37.6 mg/kg |
| C[C@]12CCC(=O)C=C1CC[C@@H]1[C@@H]2CC[C@@]2(C)[C@H]1CC[C@]2(C)O | 2500 mg/kg |
| Cc1ccc(O)c([N+](=O)[O-])c1 | 3360 mg/kg |
| CC(C)(O)C(C)(O)c1ccc(Cl)cc1 (stereo unspecified) | 832 mg/kg |
| O=c1[nH]c2c(Cl)c(Cl)cc(Cl)c2o1 | 500 mg/kg |
| CC1(CO)CN(c2ccccc2)NC1=O (stereo unspecified) | 566 mg/kg |
| CCc1cc(S(=O)(=O)O)c2cc(C(C)C)cccc1-2 | 1100 mg/kg |
| O=C1[C@H]2C[C@@H]3[C@@H]4[C@H]2[C@]2(Cl)[C@@H](Cl)[C@](Cl)([C@H]13)[C@@]4(Cl)C2(Cl)Cl (racemic) | 10 mg/kg |
| CC(=O)Oc1c([N+](=O)[O-])cc([N+](=O)[O-])cc1C(C)(C)C | 62 mg/kg |

| Compound | LD50 |
| --- | --- |
| O=C=Nc1ccc([N+](=O)[O-])cc1 | 1600 mg/kg |
| c1ccc(P(C2CCCCC2)C2CCCCC2)cc1 | 820 mg/kg |
| C[C@]12C=CC(=O)C=C1CC[C@@H]1[C@@H]2[C@@H](O)C[C@@]2(C)[C@H]1CC[C@]2(O)C(=O)COC(=O)CCCc1ccc(N(CCCl)CCCl)cc1 | 530 mg/kg |
| O=C(OCC(O)CO)c1ccccc1Nc1ccnc2cc(Cl)ccc12 (stereo unspecified) | 2300 mg/kg |
| COc1ccccc1C1C(Cl)C(=O)N1c1ccccc1C(=O)O (stereo unspecified) | 2400 mg/kg |
| O=C(O)c1cc([N+](=O)[O-])cc([N+](=O)[O-])c1O | 860 mg/kg |
| COc1ccc(Cl)cc1N/C(=N/C1CCCCC1)c1ccccc1 | 625 mg/kg |
| C=CC(=O)OCCOCCOCCOC(=O)C=C | 500 mg/kg |
| COc1ccc(OCCCN(C)CCOc2ccc3c(c2)OCO3)c(C2Sc3ccccc3N(C)C2=O)c1 (stereo unspecified) | 206 mg/kg |
| CCCCC(C)(C)O | 820 mg/kg |
| CC(C)(c1cc(Cl)c(O)c(Cl)c1)c1cc(Cl)c(O)c(Cl)c1 | 7430 mg/kg |
| CCOc1ccc(C=O)cc1 | 2100 mg/kg |
| Cc1cc([N+](=O)[O-])ccc1S(=O)(=O)NCCO | 4470 mg/kg |
| CC(=O)OCCCC(=O)CBr | 600 mg/kg |
| OC(CNCC(O)C1COc2ccccc2O1)C1COc2ccccc2O1 (stereo unspecified) | 4490 mg/kg |
| O=S(=O)(Nc1ncc(OCCO)cn1)c1ccccc1 | 8000 mg/kg |
| CNC(=O)N1C(=O)CN=C(c2ccccc2)c2cc([N+](=O)[O-])ccc21 | 2280 mg/kg |
| Nc1cccc(N(CCO)CCO)c1 | 246 mg/kg |
| FC(Cl)C(F)(Cl)Cl (stereo unspecified) | 7800 mg/kg |
